How the values were obtained:
[1] = Dynamic light scattering, aggregating behavior; type: physicochemical; conditions: dynamic light scattering (data not shown)
Method: (§1) For compound 9a binding affinity and mode of inhibition was determined by using gradient concentrations of CENTA. […] For this compound aggregating behavior was also excluded by dynamic light scattering experiment (data not shown).

[2] = target: T1, recombinant KPC-2 (Klebsiella pneumoniae, UniProt Q9F663); test: KPC-2 inhibition assay, CENTA as reporter substrate; type: biochemical
T1 construct: made in house; host or cells: E. coli BL21 (DE3)
T1 sequence (Q9F663 25-293, looked up): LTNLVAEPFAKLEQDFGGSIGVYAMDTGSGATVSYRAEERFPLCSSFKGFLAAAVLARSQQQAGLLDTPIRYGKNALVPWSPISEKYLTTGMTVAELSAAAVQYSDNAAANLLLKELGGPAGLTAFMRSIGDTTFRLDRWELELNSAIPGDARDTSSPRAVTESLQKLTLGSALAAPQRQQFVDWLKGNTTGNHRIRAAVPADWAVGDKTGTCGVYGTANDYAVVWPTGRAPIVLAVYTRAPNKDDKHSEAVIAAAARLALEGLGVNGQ
Method: The blaKPC-2 gene was kindly provided by Prof. Sergei Vakulenko (University of Notre Dame du Lac, Indiana, USA) and cloned as already reported and transformed into competent E.coli BL21 (DE3) cells for protein expression. 50 mL of Tryptic Soy Broth (TSB) (50 mg/L kanamycin) were inoculated with fresh colonies and grown at 37°C. 4 mL of the overnight culture was used to inoculate 1.3 L of TSB (50 mg/L kanamycin) grown at 37°C with shaking to an optical density of 0.5 measured at 600 nm. Then expression of recombinant bla gene was induced by adding 1.0 mM IPTG (isopropyl-D-thiogalactopyranoside) and the cells were again allowed to grow at 20°C overnight. Bacteria were harvested by centrifugation at 4000 rpm for 20 minutes. The pelleted cells were resuspended in Tris-HCl 50 mM pH 7.4–7.5. Periplasmatic proteins were extracted as reported in the pET System Manual (TB055 10th Edition Rev. B 0403) and subsequently dialyzed in sodium acetate buffer (50 mM, pH 5.0). The protein was conveniently purified in a single step using a Macro-Prep High S resin and eluted using sodium acetate 50 mM pH 5.0 and a sodium chloride (NaCl) linear gradient from 100 to 500 mM. The purified protein was dialyzed overnight in sodium phosphate buffer 50 mM, pH 7.0 [31, 32].
The hydrolytic activity of KPC-2 was measured using the β-lactam substrates CENTA (100 uM, KM 70 uM) or nitrocefin (114 uM, KM 36 μM) in reaction buffer consisting of 50 mM of PB at pH 7.0 at 25°C with 0.01% v/v Triton X-100 to avoid compound aggregation and promiscuous inhibition.[33] Reactions were monitored using a Beckmann DU640 spectrophotometer at […] for CENTA and 480 nm wavelength for nitrocefin [34]. The test compounds were synthesized as described below or purchased from Enamine, TimTec, Vitas-M, ChemBridge, Otava, Life Chemicals or Apollo Scientific and assayed without further purification. Compounds were dissolved in dimethyl sulfoxide (DMSO) to a concentration of 25 mM and stored at -20°C. The highest concentration at which the compounds were tested was up to 1 mM (depending on their solubility). All experiments were performed in duplicate and the error never exceeded 5%. The reaction was typically initiated by adding KPC-2 to the reaction buffer last. To control for incubation effects, protein was added to the reaction buffer first, and the reaction was initiated by the addition of reporter substrate after 10 minutes of enzyme-compound incubation.
Fig 4 Inhibitory activity of compounds selected from virtual screening. ^[a]Assays were performed in duplicate (errors were less than 5%) with CENTA as reporter substrate (100 μM, km 70 μM). Kinetic were monitored at 25° by following the absorbance variation at λ = 405 nm. ^[b] If no IC50 has been measured, percent inhibition at the highest tested concentration is given in parentheses. For example, > 0.50 (26%) implies that the highest concentration tested was 0.50 mM; at this concentration, the enzyme was inhibited by 26%. Therefore, IC50> 0.50 mM. When % Inhibition was below 10% No Inibition (NI) is reported. ^[c]Assays were run after 10’ incubation of the inhibitor with KPC-2. Reaction was started by the addition of CENTA. […] 0 (11) | 32a: IC50 mM ^[a,b]: 1.24
Competitive inhibition mechanism and the Ki for compound 9a was determined by Lineweaver–Burk (LB) and Dixon plots.

[3] = target: CTX-M9 (Escherichia coli, UniProt Q9L5C8); test: Inhibition of other class A β-lactamase CTX-M9; type: biochemical
Chain of CTX-M9 (Q9L5C8 29-291): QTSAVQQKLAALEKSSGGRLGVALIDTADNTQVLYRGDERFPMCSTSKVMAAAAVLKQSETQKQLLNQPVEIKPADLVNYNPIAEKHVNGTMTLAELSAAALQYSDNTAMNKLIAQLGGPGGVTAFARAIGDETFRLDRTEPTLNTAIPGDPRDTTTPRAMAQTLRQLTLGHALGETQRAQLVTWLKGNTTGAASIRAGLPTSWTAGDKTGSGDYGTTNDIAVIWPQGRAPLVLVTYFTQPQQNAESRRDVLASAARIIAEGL
Method: as §1

[4] = system: Kpn (C-); test: MIC of meropenem, alone or 1:1 with compounds, control strain; type: cell-based, K. pneumoniae; conditions: Klebsiella pneumoniae, no compound added
Method: (§2) The antimicrobial activity of the best hits 9a and 11a and their derivatives was studied in bacterial cell cultures to investigate their ability to cross the outer membrane reaching the periplasmic space, where KPC-2 is secreted and confined in Gram negative bacteria. Compounds were tested for synergy with the β-lactam antibiotic meropenem against four K. pneumoniae clinical strains, isolated from different patients at the Hospital Universitario Son Espases, Palma de Mallorca, Spain. […] The three additional strains harbored the blaKPC-2 gene and were resistant to meropenem (Table 2). […] However, against strain Kpn 53A8 the MIC value was lowered by a factor of two when meropenem was combined with compounds 32a, 1b, 2b, 5b and 6b while in combination with compound 11a the MIC value was reduced by 4 fold.

[5] = system: Kpn 53A9; test: MIC of meropenem, alone or 1:1 with compounds, KPC-2 clinical strain; type: cell-based, K. pneumoniae; conditions: Klebsiella pneumoniae, no compound added
Method: as §2

[6] = system: Kpn 53A8; test: as above; type: cell-based, K. pneumoniae; conditions: Klebsiella pneumoniae; Kpn 53A8; no compound added
Method: as §2

[7] = system: Kpn 99D8; test: as above; type: cell-based, K. pneumoniae; conditions: Klebsiella pneumoniae, no compound added
Method: as §2

In the case of `COc1ccc2nc(C(=O)O)sc2c1` [9a], the aggregating behavior [1] is reported as “excluded”, the IC50 ([2]; CENTA 100 μM, after 10' incubation of the inhibitor with KPC-2, read-out: IC50) is reported as 150 µM and the Ki ([2]; Lineweaver–Burk and Dixon plots, gradient concentrations of CENTA, read-out: Ki (determined)) is reported as 112 µM. The “ligand efficiency (LE)” value ([2]; vs KPC-2) was 0.38 kcal/mol/non-hydrogen atom, the mode of inhibition ([2]; vs KPC-2) was “competitive inhibitor” and the IC50 [3] was 160 µM.
`C[C@@H](O)[C@H]1C(=O)N2C(C(=O)O)=C(S[C@@H]3CN[C@H](C(=O)N(C)C)C3)[C@H](C)[C@H]12` [meropenem] gave an MIC [4] of under 0.25 µg/mL, an MIC [5] of 256 µg/mL and an MIC [6] of 256 µg/mL. It also gave an MIC [7] of 256 µg/mL.
